Source: patent US20100168085A1, “Dopamine and agonists and antagonists thereof for modulation of suppressive activity of CD4+CD25+ regulatory T cells” (YESA RESEARCH AND DEVELOPMENT CO. LTD. at the Weizmann …, priority 2003, published 2010)

Columns and labels:
[1] = system: suppressive activity of Treg in vivo (neuronal survival); conditions: Treg incubated with dopamine (10^−5 M, 2 h) prior to systemic injection
Description: To unequivocally show the direct effect of dopamine on Treg activity in vivo, we examined whether direct exposure of Treg to dopamine can reduce their suppressive activity in a model of neuronal survival.

[2] = system: D1-R transcripts in Treg and Teff; conditions: 2 h with 10^−5 M
Description: (§1) (xx) Polymerase chain reaction (PCR). Total RNA was purified with the RNeasy Mini Kit (Qiagen, Germantown, Md.) and transcribed into cDNA using poly dT primers. For PCR the following primers were used: […]
(§2) This was done by assaying the expression of the dopamine type-1 receptors, D1-R and D5-R, in Treg and Teff, in the absence and in the presence of dopamine (incubation of the cells for 2 h with 10^−5 M dopamine).

[3] = system: D5-R transcripts in Treg and Teff; conditions: 2 h with 10^−5 M
Description: as §1, §2

[4] = system: adhesion of Treg and Teff to fibronectin
Description: One of the main features of T cells is their ability to migrate to tissues in need of rescue or repair [such as diseased or damaged CNS (Hickey, 1999; Flugel et al., 2001). […] We therefore incubated Treg with dopamine for 2 h and then examined their adhesion to chondroitin sulfate proteoglycans (CSPG), extracellular matrix proteins often associated with injured tissues (Jones et al., 2003).

CTLA-4 on Treg = experiment: FACS analysis of CTLA-4 expression; format: cell-based, mouse; conditions: Treg activated 24 h, 2 h with compound, stained 24 h later
Description: (vii) FACS analysis of CTLA-4-expressing CD4^+ T cells. Cells were immunostained according to the manufacturer's instructions, resuspended in 0.4 mL of 1% paraformaldehyde, and analyzed by FACSort (Becton-Dickinson), with 10,000 events scored. […] The cells were scored from a region defined according to physical parameters that indicate the size (forward scatter) and granularity (side scatter) of lymphocytes. CD4^+ lymphocytes were then gated for analysis of CTLA-4 expression.
To gain further insight into the mechanism whereby dopamine affects Treg activity we examined CTLA-4, a molecule characteristic of Treg (Im et al., 2001).

[5] = system: CXCR-4 and CCR-8 mRNA in Treg; conditions: data not shown
[6] = system: IL-2 production by Treg and Teff; conditions: media conditioned 48 h, without mrIL-2
Description: (x) Enzyme-linked immunosorbent assay. Treg or Teff (0.5×10^6 cells/ml) were cultured for 48 h in the presence of anti-CD3 and anti-CD28. After 48 h the cells were centrifuged and their supernatants were collected and sampled. Concentrations of IL-2 in the samples were determined by the use of sandwich enzyme-linked immunosorbent assay (ELISA) kits (R&D Systems, Minneapolis, Minn.). For detection of secreted IL-10 cells were centrifuged every 24 h and replaced with a fresh medium. Supernatants obtained from cells after 24, 48 and 72 h in culture were subjected to ELISA kit (Diaclone Research, Fleming, France). The plates were developed using a 3,3′,5,5′-tetramethyl-benzidine liquid substrate system (Sigma, St. Louis, Mo.). The reaction was stopped by adding 1M H3PO4. Results for each experiment were calculated as the amount of secreted cytokine per 1 ml of sample, after subtraction of the background levels of the medium.
It should be noted that activation of both T cell populations was carried out in the absence of mrIL-2.

[7] = system: migration of Treg towards MDC (CCL22)
Description: (§3) The migration of T cells across polycarbonate filters (pore size 5 μm, diameter 6.5 mm) towards SDF-1 and MDC (CCL22) was assayed in 24-well Transwell chambers (Costar, Corning, Corning, N.Y.). T lymphocytes (1.67×10^6 cells/mL) were suspended in RPMI/0.1% BSA, and 150 μL of the cell suspension was added to the upper chamber after incubation with or without dopamine (90 min, 37° C.). Chemokines were added to the lower chamber at concentrations of 1 μg/mL SDF-1 (CytoLab, Israel) and 0.25 μg/mL MDC (R&D Systems). The plates were incubated for 90 min at 37° C. in 9.5% CO2. […] The numbers of migrating T cells were measured by flow cytometer acquisition for a fixed time (60 s). To calculate specific migration, the number of cells in each subpopulation in the absence of chemokine was subtracted from the number in the corresponding cell subpopulation that migrated in the presence of chemokines. The number of migrating CD4^+CD25^+ T cells was calculated as a percentage of the total T cell population before migration. For migration of purified population we used a similar protocol.
We therefore examined whether exposure to dopamine would also affect Treg migration. For this experiment we used a normal population of CD4^+ T cells, of which Treg (CD4^+CD25^+) accounts for approximately 11% (FIG. 4e).
To examine the direct effect of dopamine on the migration of Treg, we assayed the effect of dopamine on the migration of purified Treg towards MDC. The migratory Treg were stained for CD4 to ensure that cell debris and aggregates would not be counted among them.

Treg = Treg apoptosis (propidium iodide sub-G1, annexin V, FACS); format: cell-based, mouse
Description: (viii) FACS analysis of annexin V-positive regulatory T cells. PE-stained CD25^+ cells were stained for annexin V-FITC according to the manufacturer's instructions. The cells were scored as described above, and CD25^+ lymphocytes were then gated for analysis of annexin V-positive cells.
(xv) Propidium iodide staining. Cells were fixed in cold ethanol 80% and treated with RNAse. Propidium iodide was then applied, and cell samples were assessed by FACSort.

[8] = system: migration of T cells towards SDF-1
Description: as §3
We also examined the migration of a mixed T cell population towards SDF-1.

[9] = system: suppressive activity of CD4+CD25+ regulatory T cells (Treg) on Teff proliferation; experiment: Inhibition assay (co-culturing of Teff with Treg), [3H]-thymidine incorporation; format: cell-based, mouse; conditions: for Inhibitory effect on Treg activity: freshly isolated (nonactivated) Treg; for Effect on Treg suppressive activity: activated Treg
Description: (xvi) Activation of CD4^+CD25^+ regulatory T cells. Purified regulatory T cells (Treg; 0.5×10^6 cells/mL) were activated in RPMI medium supplemented with L-glutamine (2 mM), 2-mercaptoethanol (5×10^−5 M), sodium pyruvate (1 mM), penicillin (100 IU/mL), streptomycin (100 μg/mL), nonessential amino acids (1 mL/100 mL), and autologous serum 2% (vol/vol) in the presence of mrIL-2 (5 ng/mL) and soluble anti-CD3 antibodies (1 ng/mL). Irradiated (2500 rad) splenocytes (1.5×10^6 cells/mL) were added to the culture. Cells were activated for 24 or 96 h. In some of the 96-h experiments, fresh dopamine was added to the culture every 24 h during activation.
(xvii) Inhibition assay (co-culturing of Teff with Treg). Naïve effector T cells (Teff; 50×10^3 cells/well) were co-cultured with decreasing numbers of activated Treg for 72 h in 96-well flat-bottomed plates in the presence of irradiated splenocytes (10^6/mL) supplemented with anti-CD3 antibodies. [^3H]-thymidine (1 μCi) was added for the last 16 h of culture. After the cells were harvested, their [^3H]-thymidine content was analyzed by the use of […].
In this experiment, we examined whether dopamine acts on Treg and alters their suppressive effect on Teff. Suppression of proliferation of Teff, assayed by [^3H]thymidine incorporation, was used as a measure of suppressive effect of Treg (Thornton and Shevach, 1998).
Shevach, 1998, 2000). Inhibition of Treg proliferation, assayed by [^3H]thymidine incorporation, can therefore be taken as a measure of the suppressive effect. We examined the ability of major neurotransmitters and neuropeptides (dopamine, norepinephrine, substance P, and serotonin) to alleviate the Treg-induced suppression of Teff in vitro. Each compound was tested at several concentrations. […] After incubating the activated Treg for 2 h with a neurotransmitter or a neuropeptide, we washed the cells and then co-cultured them with Teff.

[10] = Teff incubated 2 h with 10^−5 M

## NCCc1ccc(O)c(O)c1 [dopamine, 3,4-dihydroxyphenethylamine]
[1]
  Suppressive effect of injected Treg on neuronal survival: abolished their suppressive effect
[2]
  Number of D1-R transcripts in Treg or Teff: did not significantly alter
[3]
  Increase of D5-R transcripts in Teff: 10 fold
  Number of D5-R transcripts in Treg: unchanged
[4]
  Adhesion of Teff to fibronectin: slight increase
  Adhesion of Treg to fibronectin: no effect
CTLA-4 on Treg
  CTLA-4 expression on Treg: slightly but consistently decreased
[5]
  Expression of mRNA for CXCR-4 and CCR-8 in Treg: did not change
[6]
  IL-2 level secreted by Teff: not affected
  Production of IL-2 by Treg: not detected
[7]
  Migration of purified Treg towards MDC: almost completely abolished
[7]; after exposure of CD4+ population to dopamine, 17% without dopamine
  Treg (CD4+CD25+) share of CD4+ cells migrating towards MDC: approximately 10%
[7]; data not shown
  Migration of Teff: no effect
Treg; Treg incubated with compound
  Apoptosis, annexin V staining for phosphatidylserine: could not detect any signs of apoptosis
Treg; Treg incubated with dopamine
  Apoptotic cells (sub-G1), propidium iodide staining: No signs of apoptosis
[8]
  Migration pattern of mixed T cell population towards SDF-1: did not alter this pattern
[9]; 10^−5 M, 2 h, Treg activated 24 h with anti-CD3 and IL-2
  Proliferation of Teff co-cultured with activated Treg incubated with compound versus Treg not incubated: more than twofold higher
[9]; 10^−5 and 10^−7 M
  Inhibitory effect on Treg activity: reproduced
[9]; 10^−7 M, 2 h
  Effect on Treg suppressive activity: significant effect
[9]; 10^−9 M, 2 h
  Effect on Treg suppressive activity: no significant effect
[9]; 10^−9 M
  Inhibitory effect on Treg activity: slight and not statistically significant
[9]; [10]
  Direct effect on Teff proliferation: did not differ
  Susceptibility of Teff to Treg suppression: did not alter the susceptibility of Teff to Treg suppression
[9]; Treg activated 96 h, 10^−5 M for 2 h at end of activation
  Teff proliferation with treated versus untreated activated Treg: significantly higher
[9]; any of the concentrations tested
  Extent of effect on Treg suppressive activity: only partial
